From patent US12440567B2, “Aqueous antibody formulation stabilized by antioxidants for parenteral administration” (AMGEN INC., priority 2007, dated 2025)

Key:
[1] = cited from earlier work
EPO binding to D11 = assay: Binding of EPO to D11 monoclonal antibody after UV-B exposure of the formulation; parameters: species or system human; conditions: for EPO binding activity to D11 during UV-B exposure: 0.1 mM antioxidant, UV-B up to 24 hours
Method: For the examples below involving exposure to UVB radiation, each sample was exposed to UVB light (λ≈302 nm) for varying times, using a UVP 8W model UVLMS-38 lamp at 4° C. The formulations were then analyzed using size exclusion chromatography high pressure liquid chromatography (SEC-HPLC). Aggregation (measured via SEC-HPLC analysis) and binding (measured using CM5 gold sensor chips) were measured to determine the effect of the antioxidant on aggregation and bioactivity of the therapeutic protein. The binding activity of therapeutic protein to a ligand (e.g. to an antibody or binding partner, or, in cases where the therapeutic was an antibody, binding activity to the specific target antigen or to protein A) was determined as follows. […] The therapeutic protein-binding ligand of interest was injected until the desired immobilization level was achieved (above 5000 response units). Three different therapeutic protein-binding ligands were measured—Antibody A's target antigen, Protein A, and D11 (an antibody that binds to erythropoietin). […] The remaining activated groups were blocked with 1.0 M ethanolamine-HCl, pH 8.5. A standard curve was prepared by using native forms of the therapeutic protein of interest. Native forms of the therapeutic protein were diluted in HBS-EP buffer (pH 7.4) to concentrations between 1 and 5 μg/mL, and then injected on the column, prepared as described above to obtain a standard curve. At the end of each sample run, regeneration buffer was used to wash away any bound therapeutic protein in preparation for subsequent injections. Various UV-stressed antibody formulations were also diluted in HBS-EP buffer (pH 7.4) to a concentration within the standard curve region, and injected to quantitate the loss of bioactivity to its respective ligand-binding partner. […] The protein was exposed to the same conditions as Antibody A and Antibody B for up to 24 hours.

Antibody A (IgG1) = assay: SEC-HPLC aggregation of Antibody A (IgG1) after UV-B exposure; format: physicochemical; conditions: for UV-B protection of Antibody A (aggregation, SEC-HPLC): Antibody A 1 mg/mL, pH 4.50 (glycolic, lactic acid) or pH 5.00 (citric acid), UV 1 hr
[2] = PABA: doses as high as 12 grams per day; cited from earlier work
[3] = test system: Antibody B binding to protein A; assay: Binding of Antibody B to protein A after UV-B exposure of the formulation; conditions: 20 mM additive; pH 6.90 phosphate buffer; 0-24 hours UV-B
Method: (§1) For the examples below involving exposure to UVB radiation, each sample was exposed to UVB light (λ≈302 nm) for varying times, using a UVP 8W model UVLMS-38 lamp at 4° C. The formulations were then analyzed using size exclusion chromatography high pressure liquid chromatography (SEC-HPLC). Aggregation (measured via SEC-HPLC analysis) and binding (measured using CM5 gold sensor chips) were measured to determine the effect of the antioxidant on aggregation and bioactivity of the therapeutic protein.
The binding activity of therapeutic protein to a ligand (e.g. to an antibody or binding partner, or, in cases where the therapeutic was an antibody, binding activity to the specific target antigen or to protein A) was determined as follows. […] The therapeutic protein-binding ligand of interest was injected until the desired immobilization level was achieved (above 5000 response units). Three different therapeutic protein-binding ligands were measured—Antibody A's target antigen, Protein A, and D11 (an antibody that binds to erythropoietin). […] The remaining activated groups were blocked with 1.0 M ethanolamine-HCl, pH 8.5.
A standard curve was prepared by using native forms of the therapeutic protein of interest. Native forms of the therapeutic protein were diluted in HBS-EP buffer (pH 7.4) to concentrations between 1 and 5 μg/mL, and then injected on the column, prepared as described above to obtain a standard curve. At the end of each sample run, regeneration buffer was used to wash away any bound therapeutic protein in preparation for subsequent injections.
Various UV-stressed antibody formulations were also diluted in HBS-EP buffer (pH 7.4) to a concentration within the standard curve region, and injected to quantitate the loss of bioactivity to its respective ligand-binding partner.

EPO = assay: SEC-HPLC aggregation/degradation of EPO after UV-B exposure; format: physicochemical, human; conditions: 20 mM antioxidant; 1 mg/mL EPO, 25 mM sodium phosphate, 125 mM sodium chloride, pH 6.90; 302 nm UV-B 24 hours
Method: as §1, with “protein. The SEC-HPLC conditions were as follows: a G3000 TOSOH SWXL column was used and the flowrate was set at 0.5 mL/min. […] FIG. 4 (EPO), FIG. 5 (anti-streptavidin), and FIG. 6 (Antibody A) show SEC-HPLC chromatograms of each proteins following exposure to 302 nm UV-B light for 24 hours. […] Each formulation was then exposed to 302 nm UV-B light for 24 hours. The protein formulation was then analyzed using SEC-HPLC.” for “protein.”

[4] = test system: Antibody A binding to protein A; assay: Binding of Antibody A to protein A (CM5 sensor chip) after UV-B exposure of the formulation; conditions: 20 mM antioxidant; pH 5.20 acetate buffer; 302 nm UV light over 24 hours
Method: (§2) For the examples below involving exposure to UVB radiation, each sample was exposed to UVB light (λ≈302 nm) for varying times, using a UVP 8W model UVLMS-38 lamp at 4° C. The formulations were then analyzed using size exclusion chromatography high pressure liquid chromatography (SEC-HPLC). Aggregation (measured via SEC-HPLC analysis) and binding (measured using CM5 gold sensor chips) were measured to determine the effect of the antioxidant on aggregation and bioactivity of the therapeutic protein. The binding activity of therapeutic protein to a ligand (e.g. to an antibody or binding partner, or, in cases where the therapeutic was an antibody, binding activity to the specific target antigen or to protein A) was determined as follows. […] The therapeutic protein-binding ligand of interest was injected until the desired immobilization level was achieved (above 5000 response units). Three different therapeutic protein-binding ligands were measured—Antibody A's target antigen, Protein A, and D11 (an antibody that binds to erythropoietin). […] The remaining activated groups were blocked with 1.0 M ethanolamine-HCl, pH 8.5. […] Various UV-stressed antibody formulations were also diluted in HBS-EP buffer (pH 7.4) to a concentration within the standard curve region, and injected to quantitate the loss of bioactivity to its respective ligand-binding partner.

[5] = test system: anti-streptavidin mAb (IgG2); assay: SEC-HPLC aggregation of anti-streptavidin (IgG2) after UV-B exposure; format: physicochemical; conditions: 20 mM antioxidant; 1 mg/mL anti-streptavidin, 10 mM sodium acetate, 5% sorbitol, pH 5.00; 302 nm UV-B 24 hours
[6] = test system: Antibody A binding to its target antigen; assay: Binding of Antibody A to its target antigen (CM5 sensor chip) after UV-B exposure of the formulation; conditions: 20 mM antioxidant; pH 5.20 acetate buffer; 302 nm UV light over 24 hours
Method: as §2

[7] = test system: anti-streptavidin (IgG2 antibody); assay: Thermal aggregation of anti-streptavidin at 52° C. for 10 days; format: physicochemical; conditions: 5% glycerol; anti-streptavidin, 50 mM sodium acetate pH 5.00; 10 days 52° C.
Method: The SEC-HPLC conditions were as follows: a G3000 TOSOH SWXL column was used and the flowrate was set at 0.5 mL/min. […] Anti-streptavidin was formulated in 50 mM sodium acetate at pH 5.00. These formulations were not exposed to UV radiation but assessed on their thermal stability.

[8] = Color change of the antioxidant upon light; format: physicochemical
Source text: P-amino benzoic acid (PABA) has a relatively powerful antioxidant effect.

Antibody A = assay: Discoloration (yellowing) of Antibody A formulations after UV-B exposure; format: physicochemical; conditions: 20 mM and 50 mM pyridoxine; Antibody A 30 mg/mL; UV-B 4 hours
[9] = 100 mM, Antibody A 1 mg/mL pH 5.00, UV 3 hours
[10] = 20 mM benzoic acid derivative, Antibody A 5 mg/mL, 20 mM sodium acetate pH 5.00, UV-B 4° C. 3 hours
[11] = 5 mM or 1 mM preservative, Antibody A 1 mg/mL pH 5.00, UV 3 hours

Question: For `CC(=O)N[C@@H](Cc1c[nH]c2ccccc12)C(=O)O` (racemic) [N-acetyl-tryptophan], which solubility [1] is on record?
Answer: more soluble than free tryptophan

Question: And the “EPO activity (binding to D11) after UV-B” value (EPO binding to D11; 20 mM racemic N-acetyl-tryptophan, 40 kU/mL EPO pH 6.90, UV 0 to 24 hours)?
Answer: preserved

Question: With `Nc1cc[nH]c(=O)n1` [Cytosine, cytosine] as the molecule, how does the “aggregation of Antibody A” value (Antibody A (IgG1); 25 mM cytosine (FIG. 21), Antibody A 1 mg/mL pH 5.00, UV 1, 2, or 3 hours) read?
Answer: able to prevent aggregation

Question: With `O=C(O)CO` [Glycolic acid, glycolic acid] as the molecule, how does the “UV-B protection of Antibody A (aggregation, SEC-HPLC)” value (Antibody A (IgG1); 100 mM) read?
Answer: most effective

Question: For `CCCOC(=O)c1cc(O)c(O)c(O)c1` [Propyl gallate, propyl gallate], which “aggregation of Antibody A (SEC-HPLC)” value (Antibody A (IgG1); 10 mM propyl gallate, pH 5.00, UV 3 hours) is on record?
Answer: able to significantly reduce the amount of aggregation

Question: With `Cc1ncc(C[n+]2csc(CCO)c2C)c(N)n1` [Thiamine, thiamine] as the molecule, how does the toxicity in humans [2] read?
Answer: no known toxicity

Question: And the “aggregation of Antibody A (SEC-HPLC)” value (Antibody A (IgG1); thiamine as low as 5 mM, Antibody A 3 mg/mL, UV-B 4 hours)?
Answer: able to significantly inhibit Antibody A aggregation

Question: What about the solubility [1] of the same molecule?
Answer: more soluble than the cinnamic acids or the benzoic acid derivatives

Question: With `O=C(O)/C=C/c1ccc(O)c(O)c1` [caffeic acid] as the molecule, how does the “EPO binding activity to D11 during UV-B exposure” value (EPO binding to D11) read?
Answer: able to protect the EPO from degradation and preserve its binding activity

Question: Which results are given for `O=C(/C=C/c1ccc(O)c(O)c1)O[C@@H]1C[C@](O)(C(=O)O)C[C@@H](O)[C@H]1O` [chlorogenic acid]?
Answer: binding of Antibody B to protein A after UV-B exposure [3]: prevented UV-B induced degradation; amount of aggregate of EPO (SEC-HPLC) (EPO): dramatically reduced; binding of Antibody A to protein A after UV exposure [4]: preserved; amount of aggregate of Antibody A (SEC-HPLC) (Antibody A (IgG1); 20 mM antioxidant, 1 mg/mL Antibody A, 10 mM sodium acetate, 9% sucrose, pH 5.20, 302 nm UV-B 24 hours): dramatically reduced; amount of aggregate of anti-streptavidin (SEC-HPLC) [5]: dramatically reduced; binding of Antibody A to its target antigen after UV exposure [6]: preserved; binding of EPO to D11 mAb after UV light exposure (EPO binding to D11; 20 mM antioxidant, up to 24 hours UV): able to significantly preserve

Question: Which “UV-B protection of Antibody A (aggregation, SEC-HPLC)” value (Antibody A (IgG1); 100 mM) does the source give for `O=C(O)CC(O)(CC(=O)O)C(=O)O` [citric acid] here?
Answer: fairly weak

Question: With `Oc1cc(O)c2c(c1)O[C@H](c1ccc(O)c(O)c1)[C@H](O)C2` [epicatechin] as the molecule, how does the solubility [1] read?
Answer: limited solubility

Question: Which “aggregation of Antibody A (SEC-HPLC)” value (Antibody A (IgG1); [9]) does the source give for `O=C(O)/C=C/C(=O)O` [fumaric acid] here?
Answer: able to protect Antibody A from aggregation

Question: For `O=C(O)c1cc(O)c(O)c(O)c1` [gallic acid], which “aggregation of Antibody A (SEC-HPLC)” value (Antibody A (IgG1); [10]) is on record?
Answer: able to significantly decrease the amount of aggregation

Question: Which “effect of added glycerol on thermal aggregation caused by ferulic and coumaric acid” value [7] does the source give for `OCC(O)CO` [glycerol] here?
Answer: counter-acted that thermal aggregation

Question: With `Cc1cccc(O)c1` [m-cresol] as the molecule, how does the “aggregation of Antibody A (SEC-HPLC)” value (Antibody A (IgG1); [11]) read?
Answer: able to significantly decrease the amount of aggregation

Question: Which “aggregation of Antibody A (SEC-HPLC)” value (Antibody A (IgG1); [10]) does the source give for `O=C(O)c1ccc(O)cc1` [p-hydroxybenzoic acid] here?
Answer: able to significantly decrease the amount of aggregation

Question: For `Oc1ccccc1` [phenol], which “aggregation of Antibody A (SEC-HPLC)” value (Antibody A (IgG1); [11]) is on record?
Answer: able to significantly decrease the amount of aggregation

Question: For `O=C(O)c1ccc(O)c(O)c1` [protocatechuic acid], which “aggregation of Antibody A (SEC-HPLC)” value (Antibody A (IgG1); [10]) is on record?
Answer: able to significantly decrease the amount of aggregation

Question: With `Cc1ncc(CO)c(CO)c1O` [pyridoxine] as the molecule, how does the “color change upon light” value [8] read?
Answer: changes to an orange-brown color upon light

Question: What about the “appearance of formulation upon exposure to UV radiation” value (Antibody A) of the same molecule?
Answer: caused the formulation to appear yellow

Question: And the “oxidation and aggregation of Antibody A” value (Antibody A (IgG1); 20 mM and 50 mM pyridoxine, Antibody A 30 mg/mL, UV-B 4 hours)?
Answer: did protect the protein from oxidation and aggregation

Question: And the solubility [1]?
Answer: highly soluble

Question: Which “aggregation of Antibody A (SEC-HPLC)” value (Antibody A (IgG1); [9]) does the source give for `O=C(O)C1=C[C@@H](O)[C@@H](O)[C@H](O)C1` [shikimic acid] here?
Answer: able to protect Antibody A from aggregation

Question: With `COc1cc(/C=C/C(=O)O)cc(OC)c1O` [sinapic acid] as the molecule, how does the “EPO binding activity to D11 during UV-B exposure” value (EPO binding to D11) read?
Answer: able to protect the EPO from degradation and preserve its binding activity

Question: For `COc1cc(O)c(C(=O)c2ccccc2)cc1S(=O)(=O)O` [sulisobenzone], which “EPO binding to D11 after UV” value (EPO binding to D11; 5 mM sulisobenzone, EPO 40 kU/mL, pH 6.90, UV 0-8 hours at 4° C.) is on record?
Answer: able to protect EPO binding to D11

Question: For `COc1cc(C(=O)O)cc(OC)c1O` [syringic acid], which “aggregation of Antibody A (SEC-HPLC)” value (Antibody A (IgG1); [10]) is on record?
Answer: able to significantly decrease the amount of aggregation

Question: With `COc1cc(C(=O)O)ccc1O` [vanillic acid] as the molecule, how does the “aggregation of Antibody A (SEC-HPLC)” value (Antibody A (IgG1); [10]) read?
Answer: able to significantly decrease the amount of aggregation

Question: Which “percent binding of EPO to D11 after UV” value (EPO binding to D11; 20 mM catechin, EPO 40 kU/mL, 25 mM sodium phosphate, 125 mM sodium chloride, 0.005% Tween-80, pH 6.90, UV 0-8 hours) does the source give for catechin here?
Answer: able to preserve EPO binding
